Test results taken from paper PMC9927415, “Tyrosine Kinase Inhibitors Display Potent Activity against Cryptosporidium parvum” (Microbiology Spectrum, 2022).

Tests used:
Assay in all cases: KINOMEscan competitive binding, whole panel
[1] = target: T1, panel of 203 kinases (Homo sapiens, UniProt P54764); details: 10 µM, n=1; kinase EPHA4; read-out: Percent inhibition EPHA4
T1 construct: purchased DiscoverX (KINOMEscan)
How it was run: (§1)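 Percentage inhibition reflects loss of kinase binding to solid-phase ATP-site probe ligands in the presence of compound. Kinases carry a T7 bacteriophage fusion.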

[2] = target: T2, panel of 203 kinases (Homo sapiens, UniProt O95819); details: 10 µM, n=1; kinase MAP4K4; read-out: Percent inhibition MAP4K4
T2 construct: purchased DiscoverX (KINOMEscan)
How it was run: as §1

[3] = target: T3, panel of 203 kinases (Homo sapiens, UniProt P54756); details: 10 µM, n=1; kinase EPHA5; read-out: Percent inhibition EPHA5
T3 construct: purchased DiscoverX (KINOMEscan)
How it was run: as §1

[4] = target: T4, panel of 203 kinases (Homo sapiens, UniProt Q08881); details: 10 µM, n=1; kinase ITK; read-out: Percent inhibition ITK
T4 construct: purchased DiscoverX (KINOMEscan)
T4 sequence (Q08881 1-620): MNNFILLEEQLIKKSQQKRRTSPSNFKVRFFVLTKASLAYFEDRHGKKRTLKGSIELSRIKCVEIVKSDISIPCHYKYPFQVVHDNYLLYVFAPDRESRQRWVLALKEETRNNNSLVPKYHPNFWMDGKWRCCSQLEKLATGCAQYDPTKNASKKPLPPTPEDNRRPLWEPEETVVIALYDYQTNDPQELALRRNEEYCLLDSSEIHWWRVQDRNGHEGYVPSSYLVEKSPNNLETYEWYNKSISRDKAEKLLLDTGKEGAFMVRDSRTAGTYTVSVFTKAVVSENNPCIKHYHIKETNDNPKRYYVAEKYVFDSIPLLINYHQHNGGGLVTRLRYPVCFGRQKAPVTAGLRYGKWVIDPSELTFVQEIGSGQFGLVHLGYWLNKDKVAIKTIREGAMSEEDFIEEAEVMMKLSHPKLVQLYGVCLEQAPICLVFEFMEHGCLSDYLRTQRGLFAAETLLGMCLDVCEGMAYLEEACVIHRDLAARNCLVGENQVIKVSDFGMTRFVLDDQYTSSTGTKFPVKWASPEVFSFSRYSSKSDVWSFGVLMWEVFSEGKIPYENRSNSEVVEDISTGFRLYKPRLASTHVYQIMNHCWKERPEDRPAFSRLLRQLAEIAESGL
How it was run: as §1

[5] = target: T5, panel of 203 kinases (Homo sapiens, UniProt Q09013); details: 10 µM, n=1; kinase DMPK; read-out: Percent inhibition DMPK
T5 construct: purchased DiscoverX (KINOMEscan)
T5 sequence (Q09013 1-629): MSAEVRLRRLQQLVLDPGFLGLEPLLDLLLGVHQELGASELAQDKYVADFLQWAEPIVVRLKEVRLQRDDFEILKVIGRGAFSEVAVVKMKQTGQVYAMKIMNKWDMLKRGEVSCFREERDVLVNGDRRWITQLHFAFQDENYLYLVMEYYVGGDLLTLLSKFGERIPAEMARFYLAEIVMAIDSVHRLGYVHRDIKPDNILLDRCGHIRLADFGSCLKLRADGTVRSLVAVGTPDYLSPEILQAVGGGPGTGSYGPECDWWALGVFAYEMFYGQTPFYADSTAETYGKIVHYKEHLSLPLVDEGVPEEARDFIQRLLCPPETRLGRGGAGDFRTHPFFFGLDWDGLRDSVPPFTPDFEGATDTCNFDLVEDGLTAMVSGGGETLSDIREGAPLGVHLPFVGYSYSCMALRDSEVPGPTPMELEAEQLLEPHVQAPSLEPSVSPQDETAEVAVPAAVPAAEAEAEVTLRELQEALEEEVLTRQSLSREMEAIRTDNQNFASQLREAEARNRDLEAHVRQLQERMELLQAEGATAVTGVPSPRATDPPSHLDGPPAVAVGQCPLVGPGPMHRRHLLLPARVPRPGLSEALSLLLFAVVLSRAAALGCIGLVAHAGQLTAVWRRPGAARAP
How it was run: as §1

[6] = target: T6, panel of 203 kinases (Homo sapiens, UniProt P29322); details: 10 µM, n=1; kinase EPHA8; read-out: Percent inhibition EPHA8
T6 construct: purchased DiscoverX (KINOMEscan)
T6 sequence (P29322 28-1005): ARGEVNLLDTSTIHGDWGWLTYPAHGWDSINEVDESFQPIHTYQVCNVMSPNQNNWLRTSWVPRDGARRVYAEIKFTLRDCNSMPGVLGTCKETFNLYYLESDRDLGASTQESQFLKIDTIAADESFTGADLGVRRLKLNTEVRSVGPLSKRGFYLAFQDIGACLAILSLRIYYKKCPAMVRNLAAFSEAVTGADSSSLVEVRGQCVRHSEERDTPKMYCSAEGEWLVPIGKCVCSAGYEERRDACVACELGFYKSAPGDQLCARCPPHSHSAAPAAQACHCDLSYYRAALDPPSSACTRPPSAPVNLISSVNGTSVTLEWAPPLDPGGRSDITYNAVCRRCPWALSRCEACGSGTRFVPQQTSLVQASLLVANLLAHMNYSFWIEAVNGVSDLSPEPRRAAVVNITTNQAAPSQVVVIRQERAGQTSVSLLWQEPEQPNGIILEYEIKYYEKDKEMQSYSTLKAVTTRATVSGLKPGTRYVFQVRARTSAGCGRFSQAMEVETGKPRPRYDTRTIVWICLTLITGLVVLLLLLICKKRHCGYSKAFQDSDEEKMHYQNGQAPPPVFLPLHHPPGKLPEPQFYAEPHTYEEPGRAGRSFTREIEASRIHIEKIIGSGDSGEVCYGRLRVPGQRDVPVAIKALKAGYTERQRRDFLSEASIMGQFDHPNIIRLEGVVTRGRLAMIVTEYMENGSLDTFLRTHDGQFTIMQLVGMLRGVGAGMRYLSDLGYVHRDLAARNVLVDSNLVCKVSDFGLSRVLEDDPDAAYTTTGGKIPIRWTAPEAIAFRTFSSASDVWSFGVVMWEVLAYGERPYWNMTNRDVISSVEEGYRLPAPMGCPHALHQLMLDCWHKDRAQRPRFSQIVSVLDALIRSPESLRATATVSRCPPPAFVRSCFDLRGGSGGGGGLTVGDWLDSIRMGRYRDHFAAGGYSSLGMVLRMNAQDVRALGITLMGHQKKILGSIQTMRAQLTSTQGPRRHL
How it was run: as §1

[7] = target: T7, panel of 203 kinases (Homo sapiens, UniProt P06239); details: 10 µM, n=1; kinase LCK; read-out: Percent inhibition LCK
T7 construct: purchased DiscoverX (KINOMEscan)
How it was run: as §1

T3 sequence (P54756 25-1037): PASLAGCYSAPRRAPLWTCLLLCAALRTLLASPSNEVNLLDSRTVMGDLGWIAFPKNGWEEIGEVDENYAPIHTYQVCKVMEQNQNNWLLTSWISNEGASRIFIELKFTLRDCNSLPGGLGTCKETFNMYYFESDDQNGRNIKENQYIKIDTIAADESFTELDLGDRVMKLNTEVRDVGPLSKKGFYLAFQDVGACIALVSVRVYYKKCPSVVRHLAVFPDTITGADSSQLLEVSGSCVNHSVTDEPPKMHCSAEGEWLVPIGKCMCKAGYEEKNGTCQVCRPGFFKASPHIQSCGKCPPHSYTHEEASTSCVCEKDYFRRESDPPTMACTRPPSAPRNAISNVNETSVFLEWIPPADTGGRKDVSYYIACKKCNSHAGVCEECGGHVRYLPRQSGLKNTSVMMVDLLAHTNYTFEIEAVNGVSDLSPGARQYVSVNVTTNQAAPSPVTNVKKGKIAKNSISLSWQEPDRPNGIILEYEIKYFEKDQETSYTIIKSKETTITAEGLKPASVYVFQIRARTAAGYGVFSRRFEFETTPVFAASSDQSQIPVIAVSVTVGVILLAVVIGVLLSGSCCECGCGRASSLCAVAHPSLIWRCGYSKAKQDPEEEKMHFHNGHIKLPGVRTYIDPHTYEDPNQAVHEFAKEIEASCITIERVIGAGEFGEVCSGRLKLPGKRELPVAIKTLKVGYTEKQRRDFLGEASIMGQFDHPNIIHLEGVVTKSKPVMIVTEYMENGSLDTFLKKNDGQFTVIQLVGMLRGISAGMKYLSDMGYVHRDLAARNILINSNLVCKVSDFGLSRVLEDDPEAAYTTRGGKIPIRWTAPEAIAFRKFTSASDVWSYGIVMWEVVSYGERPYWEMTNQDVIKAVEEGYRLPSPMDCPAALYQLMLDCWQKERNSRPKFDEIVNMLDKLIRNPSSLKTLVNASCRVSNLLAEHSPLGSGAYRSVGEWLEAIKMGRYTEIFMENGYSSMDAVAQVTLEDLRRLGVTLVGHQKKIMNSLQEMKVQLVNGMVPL
T7 sequence (P06239 whole entry): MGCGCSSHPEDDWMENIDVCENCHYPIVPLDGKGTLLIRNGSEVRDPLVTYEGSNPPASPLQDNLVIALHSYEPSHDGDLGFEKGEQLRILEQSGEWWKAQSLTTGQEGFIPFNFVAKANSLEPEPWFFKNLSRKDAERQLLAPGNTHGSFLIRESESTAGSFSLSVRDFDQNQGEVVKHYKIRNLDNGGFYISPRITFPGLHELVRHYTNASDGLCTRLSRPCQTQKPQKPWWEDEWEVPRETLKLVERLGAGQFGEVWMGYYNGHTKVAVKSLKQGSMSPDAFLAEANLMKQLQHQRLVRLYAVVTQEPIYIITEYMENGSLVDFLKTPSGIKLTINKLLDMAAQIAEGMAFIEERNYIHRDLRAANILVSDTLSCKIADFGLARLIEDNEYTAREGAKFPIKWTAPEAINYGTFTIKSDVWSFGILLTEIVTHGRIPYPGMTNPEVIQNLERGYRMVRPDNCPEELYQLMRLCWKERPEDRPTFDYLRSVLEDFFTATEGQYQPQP
T2 sequence (O95819 whole entry): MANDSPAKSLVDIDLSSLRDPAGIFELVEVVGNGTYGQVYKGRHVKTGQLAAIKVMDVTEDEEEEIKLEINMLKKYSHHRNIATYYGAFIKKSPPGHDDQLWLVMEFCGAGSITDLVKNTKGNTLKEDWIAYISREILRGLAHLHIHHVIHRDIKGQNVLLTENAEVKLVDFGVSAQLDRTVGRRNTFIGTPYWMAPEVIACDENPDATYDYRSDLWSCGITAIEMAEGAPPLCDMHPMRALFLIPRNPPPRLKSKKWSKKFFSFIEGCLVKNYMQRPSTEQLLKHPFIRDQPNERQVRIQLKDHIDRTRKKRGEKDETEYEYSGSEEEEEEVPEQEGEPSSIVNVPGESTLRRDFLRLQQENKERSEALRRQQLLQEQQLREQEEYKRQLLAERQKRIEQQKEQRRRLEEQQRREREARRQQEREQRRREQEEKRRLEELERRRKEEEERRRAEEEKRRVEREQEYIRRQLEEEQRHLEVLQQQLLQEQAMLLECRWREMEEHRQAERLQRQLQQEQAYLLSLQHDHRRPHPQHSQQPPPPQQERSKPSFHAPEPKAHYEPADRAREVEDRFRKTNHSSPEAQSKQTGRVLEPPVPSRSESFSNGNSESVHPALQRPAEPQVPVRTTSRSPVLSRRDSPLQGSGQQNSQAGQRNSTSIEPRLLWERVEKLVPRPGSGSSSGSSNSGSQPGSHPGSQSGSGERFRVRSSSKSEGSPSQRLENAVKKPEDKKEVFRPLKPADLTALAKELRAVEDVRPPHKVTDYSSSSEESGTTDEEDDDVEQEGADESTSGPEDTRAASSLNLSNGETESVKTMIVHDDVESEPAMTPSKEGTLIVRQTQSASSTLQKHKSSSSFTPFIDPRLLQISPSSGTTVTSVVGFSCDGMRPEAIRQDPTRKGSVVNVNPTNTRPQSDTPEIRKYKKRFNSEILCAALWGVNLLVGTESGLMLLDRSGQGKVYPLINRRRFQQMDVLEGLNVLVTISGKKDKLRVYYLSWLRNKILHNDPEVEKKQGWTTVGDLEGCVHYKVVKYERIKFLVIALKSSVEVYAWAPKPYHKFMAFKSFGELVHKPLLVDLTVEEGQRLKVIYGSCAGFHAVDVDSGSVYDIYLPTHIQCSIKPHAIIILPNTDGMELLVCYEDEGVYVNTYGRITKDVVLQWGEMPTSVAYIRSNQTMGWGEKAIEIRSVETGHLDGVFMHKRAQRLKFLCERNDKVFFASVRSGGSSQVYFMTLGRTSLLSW
T1 sequence (P54764 20-986): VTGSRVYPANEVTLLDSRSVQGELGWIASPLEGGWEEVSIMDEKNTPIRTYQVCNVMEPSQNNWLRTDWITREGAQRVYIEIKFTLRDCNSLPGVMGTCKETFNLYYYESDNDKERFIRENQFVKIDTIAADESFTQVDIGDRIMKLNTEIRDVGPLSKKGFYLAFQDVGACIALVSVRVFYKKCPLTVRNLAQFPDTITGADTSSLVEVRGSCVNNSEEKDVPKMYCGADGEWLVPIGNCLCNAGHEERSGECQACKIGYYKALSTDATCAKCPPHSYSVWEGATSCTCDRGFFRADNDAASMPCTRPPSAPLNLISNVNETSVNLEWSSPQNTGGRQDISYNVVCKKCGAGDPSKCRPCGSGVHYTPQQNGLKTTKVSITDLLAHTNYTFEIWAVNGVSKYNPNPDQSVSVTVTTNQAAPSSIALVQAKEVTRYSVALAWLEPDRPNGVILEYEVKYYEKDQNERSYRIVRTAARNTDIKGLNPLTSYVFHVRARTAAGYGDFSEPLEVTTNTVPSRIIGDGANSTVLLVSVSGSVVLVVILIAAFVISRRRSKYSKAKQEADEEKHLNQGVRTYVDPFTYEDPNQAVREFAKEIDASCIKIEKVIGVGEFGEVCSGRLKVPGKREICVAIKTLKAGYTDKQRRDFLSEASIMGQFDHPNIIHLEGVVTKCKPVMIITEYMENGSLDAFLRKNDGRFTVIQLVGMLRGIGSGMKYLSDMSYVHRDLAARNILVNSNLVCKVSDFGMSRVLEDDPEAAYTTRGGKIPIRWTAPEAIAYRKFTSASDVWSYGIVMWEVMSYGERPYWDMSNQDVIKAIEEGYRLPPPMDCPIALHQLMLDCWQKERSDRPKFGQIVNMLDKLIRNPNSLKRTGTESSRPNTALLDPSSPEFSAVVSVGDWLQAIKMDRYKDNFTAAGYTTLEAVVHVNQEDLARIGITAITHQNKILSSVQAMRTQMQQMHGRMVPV

Structure (SMILES)	inhibition at 10 µM [1] [%]	inhibition at 10 µM [2] [%]	inhibition at 10 µM [3] [%]	inhibition at 10 µM [4] [%]	inhibition at 10 µM [5] [%]	inhibition at 10 µM [6] [%]	inhibition at 10 µM [7] [%]
CN1CCN(c2ccc(Nc3nccc(-c4cnn5ncccc45)n3)cc2C#N)CC1 [Compound 1]	0	80	80.2	79	0	0	97.6
COc1ccc(Nc2nccc(-c3cnn4ncccc34)n2)cc1 [Compound 2]	0	0	91.8	0	0	0	0
Cc1ccc(O)cc1Nc1ccnc(Nc2cccc(C(N)=O)c2)n1 [Compound 3]	100	98.2	100	0	0	100	99.6
Cc1ccc(O)cc1N(C)c1ccnc(Nc2cccc(S(N)(=O)=O)c2)n1 [Compound 4]	100	98	100	0	0	100	99.8
Fc1cccc(COc2ccc(Nc3ncnc4c3CN(CCN3CCOCC3)CC4)cc2Cl)c1 [Compound 6]	0	0	0	0	0	0	0
COc1cc(Nc2nccc(-c3sc(N)nc3-c3cccc(NC(=O)c4c(F)cccc4F)c3)n2)cc(OC)c1OC [Compound 7]	99.8	99.3	100	0	87.5	100	99.5
C[C@@H](Oc1cc(-c2cnc3ccccn23)sc1C(N)=O)c1ccccc1Cl [Compound 8]	0	0	0	0	0	0	0
c1ccc(COc2cccc(-c3ccnc4[nH]ccc34)c2)cc1 [Compound 9]	0	0	0	0	0	0	0
Clc1ccc(Nc2ncc(-c3ccccc3)s2)cc1 [Compound 10]	0	0	0	0	0	0	0
Nc1ncc2c(-c3ccncc3)c[nH]c2n1 [Compound 11]	0	84.2	0	73.2	0	0	0
